Measurements: US11492385B2, “Long-acting co-agonists of the glucagon and GLP-1 receptors” (Merck Sharp & Dohme Corp., priority 2015, dated 2022)
Starred links: 1 amine or outer side, 2 acyl side, 3 side chain; linkers in the order of their positions; H or OH if unused. Non-standard residues stand in square brackets, D forms with d. Residues, ends and D or L forms follow the SMILES beside them. Groups on a side chain read outwards from the residue. *: point of attachment. Phe(4-CH2NH2) = NCc1ccc(C[C@H](N)C(=O)O)cc1; C18 diacid = O=C(O)CCCCCCCCCCCCCCCCC(=O)*; C16 diacid = O=C(O)CCCCCCCCCCCCCCC(=O)*; γGlu = O=C(O)[C@H](CCC(=O)[*:2])N[*:1]; Met(O2) = CS(=O)(=O)CC[C@H](N)C(=O)O; AEEA = NCCOCCOCC(=O)O; Aib = CC(C)(N)C(=O)O

Columns and labels:
human GCGR = molecular target: T1, human GCGR (Homo sapiens, UniProt P47871); test: cAMP activity assay, cells expressing human GCGR; assay type: cell-based; settings: for EC50: cAMP production, cells expressing human GCGR, assay buffer with or without 20% human serum (not stated which), read-out: GCGR EC50 human; for hGCGR/hGLP1R (hTone): ratio of human GCGR EC50 to human GLP1R EC50
T1 construct: expressed in transfected cells; kept under Blasticidin and Hygromycin selection
Method: (§1) Activity of the peptides at the Glucagon receptor (GCGR) and GLP-1 receptor (GLP1R) was measured in a cAMP activity assay. Peptides were dissolved in 100% DMSO and serially diluted to generate 10 point titrations. The peptide solutions were then transferred into 384-well assay plates (150 nL/well). […] Production of cAMP was determined using […] kits (DiscoverX) following manufacturer protocol. The plates were incubated for overnight at room temperature in the dark. Luminescence was measured using an EnVision Multilabel plate reader (Perkin Elmer). Native GLP-1 and Glucagon (Bachem) are used as control peptides. EC50 values were calculated using uses a 4 parameter logistic fit based on the Levenberg-Marquardt algorithm.

human GLP1R = molecular target: T2, human GLP1R (Homo sapiens, UniProt P43220); test: cAMP activity assay, cells expressing human GLP1R; assay type: cell-based; settings: cAMP production, assay buffer with or without 20% human serum (not stated which)
T2 construct: expressed in transfected cells; kept under Blasticidin and Hygromycin selection
Method: as §1

T2 sequence (P43220 24-463): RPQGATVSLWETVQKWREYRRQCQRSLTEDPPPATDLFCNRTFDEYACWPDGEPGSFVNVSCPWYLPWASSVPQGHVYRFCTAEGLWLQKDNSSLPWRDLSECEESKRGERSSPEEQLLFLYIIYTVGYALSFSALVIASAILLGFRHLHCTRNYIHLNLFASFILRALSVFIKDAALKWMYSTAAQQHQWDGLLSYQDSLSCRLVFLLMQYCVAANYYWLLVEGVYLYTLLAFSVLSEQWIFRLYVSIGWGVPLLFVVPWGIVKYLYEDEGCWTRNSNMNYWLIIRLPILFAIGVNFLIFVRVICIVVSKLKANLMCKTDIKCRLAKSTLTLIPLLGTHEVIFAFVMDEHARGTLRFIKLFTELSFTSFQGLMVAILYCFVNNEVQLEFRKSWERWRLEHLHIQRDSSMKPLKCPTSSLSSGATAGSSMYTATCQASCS
T1 sequence (P47871 26-477): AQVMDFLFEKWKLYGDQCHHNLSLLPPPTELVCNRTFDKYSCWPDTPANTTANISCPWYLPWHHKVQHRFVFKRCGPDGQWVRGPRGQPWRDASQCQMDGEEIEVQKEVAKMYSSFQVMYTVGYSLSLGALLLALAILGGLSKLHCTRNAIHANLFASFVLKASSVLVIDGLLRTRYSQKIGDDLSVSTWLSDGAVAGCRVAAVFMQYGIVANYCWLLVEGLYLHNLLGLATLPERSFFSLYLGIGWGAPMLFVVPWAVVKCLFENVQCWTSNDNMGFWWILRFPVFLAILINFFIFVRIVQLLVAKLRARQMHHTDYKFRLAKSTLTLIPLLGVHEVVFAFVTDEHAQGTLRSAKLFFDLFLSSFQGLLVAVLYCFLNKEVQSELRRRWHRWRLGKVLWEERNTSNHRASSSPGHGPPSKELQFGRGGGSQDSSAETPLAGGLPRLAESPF

| Compound | EC50 (human GCGR) | hGCGR/hGLP1R (hTone) (human GCGR) | EC50 (human GLP1R) |
| --- | --- | --- | --- |
| CC(C)C[C@H](NC(=O)[C@H](Cc1c[nH]c2ccccc12)NC(=O)[C@H](CCC(N)=O)NC(=O)[C@@H](NC(=O)[C@H](Cc1ccccc1)NC(=O)[C@H](CC(=O)O)NC(=O)[C@H](CCC(N)=O)NC(=O)[C@H](C)NC(=O)[C@H](C)NC(=O)[C@H](CCCNC(=N)N)NC(=O)C(C)(C)NC(=O)[C@H](CC(=O)O)NC(=O)[C@H](CC(C)C)NC(=O)[C@H](Cc1ccc(O)cc1)NC(=O)[C@H](CCCCN)NC(=O)[C@H](CO)NC(=O)[C@H](CCCCNC(=O)COCCOCCNC(=O)COCCOCCNC(=O)CC[C@H](NC(=O)CCCCCCCCCCCCCCCCC(=O)O)C(=O)O)NC(=O)[C@H](CC(=O)O)NC(=O)[C@H](CO)NC(=O)[C@@H](NC(=O)[C@H](Cc1ccccc1)NC(=O)[C@@H](NC(=O)CNC(=O)[C@H](CCC(N)=O)NC(=O)C(C)(C)NC(=O)[C@@H](N)Cc1c[nH]cn1)[C@@H](C)O)[C@@H](C)O)C(C)C)C(=O)N[C@@H](CCS(C)(=O)=O)C(=O)N[C@@H](CC(=O)O)C(=O)N[C@H](C(N)=O)[C@@H](C)O [compound 4] (H-H[Aib]QGTFTSDK([AEEA-AEEA-γGlu-C18 diacid])SKYLD[Aib]RAAQDFVQWL[Met(O2)]DT-NH2; N-terminus assumed) | 1.42 nM | 5.36 | 0.27 nM |
| CC(C)C[C@H](NC(=O)[C@H](Cc1ccc(O)cc1)NC(=O)[C@H](CCCCN)NC(=O)[C@H](CO)NC(=O)[C@H](Cc1ccc(O)cc1)NC(=O)[C@H](CC(=O)O)NC(=O)[C@H](CO)NC(=O)[C@@H](NC(=O)[C@H](Cc1ccccc1)NC(=O)[C@@H](NC(=O)CNC(=O)[C@H](CCC(N)=O)NC(=O)[C@@H](CO)NC(=O)[C@@H](N)Cc1c[nH]cn1)[C@@H](C)O)[C@@H](C)O)C(=O)N[C@@H](CC(=O)O)C(=O)N[C@@H](C)C(=O)N[C@@H](CCCNC(=N)N)C(=O)N[C@@H](C)C(=O)N[C@@H](C)C(=O)N[C@@H](CCC(N)=O)C(=O)N[C@@H](CCCCNC(=O)COCCOCCNC(=O)COCCOCCNC(=O)CC[C@H](NC(=O)CCCCCCCCCCCCCCC(=O)O)C(=O)O)C(=O)N[C@@H](Cc1ccccc1)C(=O)N[C@H](C(=O)N[C@@H](CCC(N)=O)C(=O)N[C@@H](Cc1c[nH]c2ccccc12)C(=O)N[C@@H](CC(C)C)C(=O)N[C@@H](CCS(C)(=O)=O)C(=O)N[C@@H](CC(=O)O)C(=O)N[C@H](C(N)=O)[C@@H](C)O)C(C)C [compound 15] (H-H[dS]QGTFTSDYSKYLDARAAQK([AEEA-AEEA-γGlu-C16 diacid])FVQWL[Met(O2)]DT-NH2) | 0.01 nM | 0.07 | 0.22 nM |
| CC(C)C[C@H](NC(=O)[C@H](Cc1ccc(O)cc1)NC(=O)[C@H](CCCCN)NC(=O)[C@H](CO)NC(=O)[C@H](Cc1ccc(O)cc1)NC(=O)[C@H](CC(=O)O)NC(=O)[C@H](CO)NC(=O)[C@@H](NC(=O)[C@H](Cc1ccccc1)NC(=O)[C@@H](NC(=O)CNC(=O)[C@H](CCC(N)=O)NC(=O)C(C)(C)NC(=O)[C@@H](N)Cc1c[nH]cn1)[C@@H](C)O)[C@@H](C)O)C(=O)N[C@@H](CC(=O)O)C(=O)N[C@@H](CCC(=O)O)C(=O)N[C@@H](CCCNC(=N)N)C(=O)N[C@@H](C)C(=O)N[C@@H](C)C(=O)N[C@@H](CCC(N)=O)C(=O)N[C@@H](Cc1ccc(CNC(=O)COCCOCCNC(=O)COCCOCCNC(=O)CC[C@H](NC(=O)CCCCCCCCCCCCCCC(=O)O)C(=O)O)cc1)C(=O)N[C@@H](Cc1ccccc1)C(=O)N[C@H](C(=O)N[C@@H](CCC(N)=O)C(=O)N[C@@H](Cc1c[nH]c2ccccc12)C(=O)N[C@@H](CC(C)C)C(=O)N[C@@H](CC(C)C)C(=O)N[C@@H](CCCCN)C(=O)N[C@H](C(N)=O)[C@@H](C)O)C(C)C [compound 27] (H-H[Aib]QGTFTSDYSKYLDERAAQ[Phe(4-CH2NH2)]([AEEA-AEEA-γGlu-C16 diacid])FVQWLLKT-NH2) | 0.44 nM | 9.24 | 0.05 nM |
| CC(C)C[C@H](NC(=O)[C@H](Cc1c[nH]c2ccccc12)NC(=O)[C@H](CCC(N)=O)NC(=O)[C@@H](NC(=O)[C@H](Cc1ccccc1)NC(=O)[C@H](CC(=O)O)NC(=O)[C@H](CCC(N)=O)NC(=O)[C@H](C)NC(=O)[C@H](C)NC(=O)[C@H](CCCNC(=N)N)NC(=O)C(C)(C)NC(=O)[C@H](CC(=O)O)NC(=O)[C@H](CC(C)C)NC(=O)[C@H](Cc1ccc(O)cc1)NC(=O)[C@H](CCCCNC(=O)COCCOCCNC(=O)COCCOCCNC(=O)CC[C@H](NC(=O)CCCCCCCCCCCCCCCCC(=O)O)C(=O)O)NC(=O)[C@H](CO)NC(=O)[C@H](Cc1ccc(O)cc1)NC(=O)[C@H](CC(=O)O)NC(=O)[C@H](CO)NC(=O)[C@@H](NC(=O)[C@H](Cc1ccccc1)NC(=O)[C@@H](NC(=O)CNC(=O)[C@H](CCC(N)=O)NC(=O)C(C)(C)NC(=O)[C@@H](N)Cc1c[nH]cn1)[C@@H](C)O)[C@@H](C)O)C(C)C)C(=O)N[C@@H](CCS(C)(=O)=O)C(=O)N[C@@H](CC(=O)O)C(=O)N[C@H](C(N)=O)[C@@H](C)O [compound 5] (H-H[Aib]QGTFTSDYSK([AEEA-AEEA-γGlu-C18 diacid])YLD[Aib]RAAQDFVQWL[Met(O2)]DT-NH2) | 0.97 nM | 8.80 | 0.11 nM |
| CC(C)C[C@H](NC(=O)[C@H](Cc1ccc(O)cc1)NC(=O)[C@H](CCCCN)NC(=O)[C@H](CO)NC(=O)[C@H](Cc1ccc(O)cc1)NC(=O)[C@H](CC(=O)O)NC(=O)[C@H](CO)NC(=O)[C@@H](NC(=O)[C@H](Cc1ccccc1)NC(=O)[C@@H](NC(=O)CNC(=O)[C@H](CCC(N)=O)NC(=O)C(C)(C)NC(=O)[C@@H](N)Cc1c[nH]cn1)[C@@H](C)O)[C@@H](C)O)C(=O)N[C@@H](CC(=O)O)C(=O)N[C@@H](C)C(=O)N[C@@H](CCCNC(=N)N)C(=O)N[C@@H](C)C(=O)N[C@@H](C)C(=O)N[C@@H](CCC(N)=O)C(=O)N[C@@H](CC(=O)O)C(=O)N[C@@H](Cc1ccccc1)C(=O)N[C@H](C(=O)N[C@@H](CCC(N)=O)C(=O)N[C@@H](Cc1c[nH]c2ccccc12)C(=O)N[C@@H](CC(C)C)C(=O)N[C@@H](CCS(C)(=O)=O)C(=O)N[C@@H](Cc1ccc(CNC(=O)COCCOCCNC(=O)COCCOCCNC(=O)CC[C@H](NC(=O)CCCCCCCCCCCCCCCCC(=O)O)C(=O)O)cc1)C(=O)N[C@H](C(N)=O)[C@@H](C)O)C(C)C [compound 77] (H-H[Aib]QGTFTSDYSKYLDARAAQDFVQWL[Met(O2)][Phe(4-CH2NH2)]([AEEA-AEEA-γGlu-C18 diacid])T-NH2; N-terminus assumed) | 1.09 nM | 2.3 | 0.47 nM |
| CC(C)C[C@H](NC(=O)[C@H](Cc1ccc(O)cc1)NC(=O)[C@H](CCCCN)NC(=O)[C@H](CO)NC(=O)[C@H](Cc1ccc(O)cc1)NC(=O)[C@H](CC(=O)O)NC(=O)[C@H](CO)NC(=O)[C@@H](NC(=O)[C@H](Cc1ccccc1)NC(=O)[C@@H](NC(=O)CNC(=O)[C@H](CCC(N)=O)NC(=O)C(C)(C)NC(=O)[C@@H](N)Cc1c[nH]cn1)[C@@H](C)O)[C@@H](C)O)C(=O)N[C@@H](CC(=O)O)C(=O)N[C@@H](C)C(=O)N[C@@H](CCCCN)C(=O)N[C@@H](C)C(=O)N[C@@H](C)C(=O)N[C@@H](CCCCNC(=O)COCCOCCNC(=O)COCCOCCNC(=O)CC[C@H](NC(=O)CCCCCCCCCCCCCCCCC(=O)O)C(=O)O)C(=O)N[C@@H](CC(=O)O)C(=O)N[C@@H](Cc1ccccc1)C(=O)N[C@H](C(=O)N[C@@H](CCC(N)=O)C(=O)N[C@@H](Cc1c[nH]c2ccccc12)C(=O)N[C@@H](CC(C)C)C(=O)N[C@@H](CCS(C)(=O)=O)C(=O)N[C@@H](CC(=O)O)C(=O)N[C@H](C(N)=O)[C@@H](C)O)C(C)C [compound 70] (H-H[Aib]QGTFTSDYSKYLDAKAAK([AEEA-AEEA-γGlu-C18 diacid])DFVQWL[Met(O2)]DT-NH2; N-terminus assumed) | 1.1 nM | 2.3 | 0.5 nM |
| CC(C)C[C@H](NC(=O)[C@H](Cc1ccc(O)cc1)NC(=O)[C@H](CCCCN)NC(=O)[C@H](CO)NC(=O)[C@H](Cc1ccc(O)cc1)NC(=O)[C@H](CC(=O)O)NC(=O)[C@H](CO)NC(=O)[C@@H](NC(=O)[C@H](Cc1ccccc1)NC(=O)[C@@H](NC(=O)CNC(=O)[C@H](CCC(N)=O)NC(=O)C(C)(C)NC(=O)[C@@H](N)Cc1c[nH]cn1)[C@@H](C)O)[C@@H](C)O)C(=O)N[C@@H](CC(=O)O)C(=O)N[C@@H](C)C(=O)N[C@@H](CCCNC(=N)N)C(=O)N[C@@H](C)C(=O)N[C@@H](C)C(=O)N[C@@H](CCC(N)=O)C(=O)N[C@@H](CCCCNC(=O)COCCOCCNC(=O)COCCOCCNC(=O)CC[C@H](NC(=O)CCCCCCCCCCCCCCCCC(=O)O)C(=O)O)C(=O)N[C@@H](Cc1ccccc1)C(=O)N[C@H](C(=O)N[C@@H](CCC(N)=O)C(=O)N[C@@H](Cc1c[nH]c2ccccc12)C(=O)N[C@@H](CC(C)C)C(=O)N[C@@H](CCS(C)(=O)=O)C(=O)N[C@@H](CC(=O)O)C(=O)N[C@H](C(N)=O)[C@@H](C)O)C(C)C [compound 30] (H-H[Aib]QGTFTSDYSKYLDARAAQK([AEEA-AEEA-γGlu-C18 diacid])FVQWL[Met(O2)]DT-NH2) | 0.1 nM | 1.66 | 0.06 nM |
